In US20150132342A1, “NOVEL IMMUNE ACTIVATORS: SUBSTITUTE 4-AMINOQUINAZOLINES” (The Regents of the University of California, priority 2013, published 2015):

Legend:
Assay type in all cases: cell-based
TLR4/MD-2/CD14 = target: T1, TLR4/MD-2/CD14 (Homo sapiens, UniProt O00206+Q9Y6Y9); assay: hTLR4 HEK Blue reporter cells, NF-κB SEAP secretion (QuantiBlue OD630); conditions: for hTLR4 0.5 μM: Quantiblue OD630 of hTLR4 HEK Blue cells, normalized to LPS positive control=100; for Activity relative to compound 1a (SAR in words): TLR4 reporter cells and hPBMC
T1 construct: host or cells: HEK293 (HEK Blue hTLR4)
Experimental: In vitro assays using TLR reporter cell lines. Murine or humanTLR4 HEK Blue™ cells (Invivogen, 2.5×10^4 cells per well of a 96 well plate), or NF-κB/SEAPorter™ HEK 293 cells (Imgenex, San Diego, Calif.) for human TLR2, TLR3, TLR5, TLR7, TLR8, or TLR9 (5×10^4 cells per well of 96 well plate) were incubated with graded doses of the test compound. The culture supernatants were harvested after a 20-24 h incubation period. Secreted alkaline phosphatase (SEAP) activity in the supernatants was determined by a colorimetric assay, using either the SEAPorter Assay Kit (Imgenex, San Diego, Calif.), with absorbance read at 405 nm, or QuantiBlue (Invivogen), with absorbance read at 630 nm. In some experiments, graded concentrations of LPS-RS ([…], Invivogen) were used to test TLR4-specific binding of the hit compound.

human PBMC = assay: IL-8 release in human PBMC (ELISA); conditions: Homo sapiens, PBMC, 18 h; 0.5 μM; IL-8 release, normalized to LPS positive control=100
Experimental: In vitro activities in human peripheral blood mononuclear cells (PBMC). Human PBMC were isolated from buffy coats obtained from the San Diego Blood Bank (San Diego, Calif.) as described previously.^5,6 PBMC (1×10^6/mL) were incubated with various compounds in complete RPMI (Omega Scientific) for 18 h at 37° C., 5% CO2 and culture supernatants were collected. The levels of IL-8 in the supernatants were determined by ELISA (BD Biosciences).

HepG2 cells = assay: MTT assay in HepG2 cells; conditions: compounds tested at 10 μM; normalized with OD570-650 of vehicle treatment; in % (unit assumed)
human TLR4/MD-2 = target: T2, human TLR4/MD-2 (Homo sapiens, UniProt O00206+Q9Y6Y9); assay: BMDM from transgenic mice expressing human TLR4/MD-2 (IL-6, IP-10); conditions: BMDM from human TLR4/MD-2 transgenic mice deficient for murine TLR4/MD-2
T2 construct: expressed in transfected cells; host or cells: bone marrow derived macrophages of human TLR4 transgenic mice on a murine TLR4/MD-2 null C57BL/6 background (gift of Dr. L. Hajjar)
Description: Animals. Seven to 9 week-old C57BL/6 (wild type, WT) and Cd14^−/− (C57BL/6 background) mice were purchased from the Jackson Laboratories (Bar Harbor, Mass.). Tlr4^−/− mice (C57BL/6 background) were a gift from Dr. Shizuo Akira (Osaka University, Japan) and were backcrossed for 10 generations onto the C57BL/6 background at University of California, San Diego (UCSD). MD-2^−/− mice (C57BL/6 background) were originally generated by Dr. K. Miyake (University of Tokyo, Tokyo, Japan) and were kindly provided by Dr. L. Hajjar (University of Washington, Seattle, Wash.). Human TLR4 transgenic mice on murine TLR4/MD-2 null C57BL/6 background were kindly provided by Dr. L. Hajjar.^3 All animal experiments were approved by the UCSD Institutional Animal Care and Use Committee.
In vitro cytokine induction in bone marrow derived dendritic cells (BMDC) and macrophages (BMDM). […] The levels of IL-6 or IP-10 in the culture supernatants were determined by ELISA (BD Biosciences, La Jolla, Calif.).^5 Finally, all levels of cytokine release were normalized to those of LPSstimulation within each experiment, set at 100.

T1 sequence (O00206 24-839): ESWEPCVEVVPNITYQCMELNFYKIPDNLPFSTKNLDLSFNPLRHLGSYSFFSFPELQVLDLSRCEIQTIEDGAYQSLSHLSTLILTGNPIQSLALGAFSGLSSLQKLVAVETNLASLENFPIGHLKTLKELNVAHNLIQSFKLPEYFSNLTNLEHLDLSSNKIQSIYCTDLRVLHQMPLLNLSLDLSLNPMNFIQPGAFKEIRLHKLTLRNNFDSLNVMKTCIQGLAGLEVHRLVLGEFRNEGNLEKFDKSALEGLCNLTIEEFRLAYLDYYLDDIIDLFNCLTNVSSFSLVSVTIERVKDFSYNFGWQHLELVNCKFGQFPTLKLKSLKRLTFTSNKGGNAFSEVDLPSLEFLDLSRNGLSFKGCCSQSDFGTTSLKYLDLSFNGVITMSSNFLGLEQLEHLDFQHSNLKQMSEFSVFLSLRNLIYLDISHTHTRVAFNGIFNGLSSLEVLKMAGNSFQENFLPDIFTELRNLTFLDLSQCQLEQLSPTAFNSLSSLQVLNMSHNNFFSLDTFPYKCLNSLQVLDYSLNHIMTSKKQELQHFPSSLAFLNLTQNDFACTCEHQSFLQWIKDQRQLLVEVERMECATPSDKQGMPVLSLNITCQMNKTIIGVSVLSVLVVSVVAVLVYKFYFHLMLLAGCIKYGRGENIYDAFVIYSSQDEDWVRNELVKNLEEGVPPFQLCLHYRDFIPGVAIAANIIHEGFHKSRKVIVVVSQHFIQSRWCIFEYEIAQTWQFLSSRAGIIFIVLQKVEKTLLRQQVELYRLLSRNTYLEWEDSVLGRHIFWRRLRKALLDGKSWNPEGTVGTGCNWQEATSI
T1 sequence (Q9Y6Y9 19-160): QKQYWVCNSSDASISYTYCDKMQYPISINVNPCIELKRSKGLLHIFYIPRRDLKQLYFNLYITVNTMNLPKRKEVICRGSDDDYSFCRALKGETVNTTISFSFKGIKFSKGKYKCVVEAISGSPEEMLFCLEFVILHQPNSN
T2 sequence (O00206 24-839): as the sequence (O00206 24-839) above
T2 sequence (Q9Y6Y9 19-160): as the sequence (Q9Y6Y9 19-160) above

| SMILES | hTLR4 0.5 μM (TLR4/MD-2/CD14) | Activity relative to compound 1a (SAR in words) (TLR4/MD-2/CD14) | HepG2 MT (HepG2 cells) | Activation of transgenic human TLR4/MD-2 complex relative to mouse TLR4/MD-2 (human TLR4/MD-2) | IL-8 release (% of LPS control) at 0.5 µM (human PBMC) |
| --- | --- | --- | --- | --- | --- |
| CCOC(=O)c1nc(Nc2cc(Oc3ccccc3C)cc([N+](=O)[O-])c2)c2ccccc2n1 [Compound 1b, Ethyl 4-((3-nitro-5-(o-tolyloxy)phenyl)amino)quinazoline-2-carboxylate] | 45.5 | enhanced | 96.7 | – | 20.5% |
| CCOC(=O)c1nc(Nc2cc(Oc3cccc(C)c3)cc([N+](=O)[O-])c2)c2ccccc2n1 [Compound 1c, Ethyl 4-((3-nitro-5-(m-tolyloxy)phenyl)amino)quinazoline-2-carboxylate] | 14.5 | – | 109.9 | – | 5.8% |
| CCOC(=O)c1nc(Nc2cc(Oc3ccc(C)cc3)cc([N+](=O)[O-])c2)c2ccccc2n1 [Compound 1d, Ethyl 4-((3-nitro-5-(p-tolyloxy)phenyl)amino)quinazoline-2-carboxylate] | 0.5 | – | 108.8 | – | 0.4% |
| CCOC(=O)c1nc(Nc2cc(Oc3ccccc3CC)cc([N+](=O)[O-])c2)c2ccccc2n1 [Compound 1e, Ethyl 4-((3-(2-ethylphenoxy)-5-nitrophenyl)amino)quinazoline-2-carboxylate] | 4.2 | substantial loss of activity | 98.9 | – | 3.2% |
| CCOC(=O)c1nc(Nc2cc(Oc3ccccc3Cl)cc([N+](=O)[O-])c2)c2ccccc2n1 [Compound 1f, Ethyl 4-((3-(2-chlorophenoxy)-5-nitrophenyl)amino)quinazoline-2-carboxylate] | 73.9 | enhanced | 107.4 | – | 27.3% |
| CCOC(=O)c1nc(Nc2cc(Oc3ccccc3Br)cc([N+](=O)[O-])c2)c2ccccc2n1 [Compound 1g, Ethyl 4-((3-(2-bromophenoxy)-5-nitrophenyl)amino)quinazoline-2-carboxylate] | 79.0 | enhanced | 90.8 | to a greater extent | 35.6% |
| CCOC(=O)c1nc(Nc2cc(Oc3ccccc3I)cc([N+](=O)[O-])c2)c2ccccc2n1 [Compound 1h, Ethyl 4-((3-(2-iodophenoxy)-5-nitrophenyl)amino)quinazoline-2-carboxylate] | 65.5 | enhanced | 93.8 | – | 34.2% |
| CCOC(=O)c1nc(Nc2cc(Oc3ccccc3C(F)(F)F)cc([N+](=O)[O-])c2)c2ccccc2n1 [Compound 1i, Ethyl 4-((3-nitro-5-(2-(trifluoromethyl)phenoxy)phenyl)amino)quinazoline-2-carboxylate] | 58.7 | – | 67.1 | – | 26.5% |
| CCOC(=O)c1nc(Nc2cc(Oc3c(C)cccc3C)cc([N+](=O)[O-])c2)c2ccccc2n1 [Compound 1j, Ethyl 4-((3-(2,6-dimethylphenoxy)-5-nitrophenyl)amino)quinazoline-2-carboxylate] | 0.6 | – | 106.3 | – | 0% |
| CCOC(=O)c1nc(Nc2cc(Oc3ccc4ccccc4c3)cc([N+](=O)[O-])c2)c2ccccc2n1 [Compound 1k, Ethyl 4-((3-(naphthalen-2-yloxy)-5-nitrophenyl)amino)quinazoline-2-carboxylate] | 0.8 | loss of activity | 111.4 | – | 0% |
| CCOC(=O)c1nc(Nc2cc(N)cc(Oc3ccccc3)c2)c2ccccc2n1 [Compound 5a, Ethyl 4-((3-amino-5-phenoxyphenyl)amino)quinazoline-2-carboxylate] | 0.6 | complete loss of activity | 106.1 | – | 0.3% |
| Nc1cc(Nc2nc(C(=O)O)nc3ccccc23)cc(Oc2ccccc2)c1 [Compound 6a, 4-((3-Amino-5-phenoxyphenyl)amino)quinazoline-2-carboxylic acid] | 1.1 | – | 105.0 | – | 0.3% |
| O=C(O)c1nc(Nc2cc(Oc3ccccc3)cc([N+](=O)[O-])c2)c2ccccc2n1 [Compound 7a, 4-((3-Nitro-5-phenoxyphenyl)amino)quinazoline-2-carboxylic acid] | 0.6 | – | 84.5 | – | 0.5% |
| O=C(O)c1nc(Nc2cc(Oc3ccccc3Br)cc([N+](=O)[O-])c2)c2ccccc2n1 [Compound 7g, 4-((3-(2-Bromophenoxy)-5-nitrophenyl)amino)quinazoline-2-carboxylic acid] | 1.6 | – | 96.3 | – | 0% |

Now from value to compound, other results behind:

| hTLR4 0.5 μM (TLR4/MD-2/CD14) | Activity relative to compound 1a (SAR in words) (TLR4/MD-2/CD14) | HepG2 MT (HepG2 cells) | Activation of transgenic human TLR4/MD-2 complex relative to mouse TLR4/MD-2 (human TLR4/MD-2) | SMILES | IL-8 release (% of LPS control) at 0.5 µM (human PBMC) |
| --- | --- | --- | --- | --- | --- |
| 2.2 | – | 107.4 | – | CCNC(=O)c1nc(Nc2cc(Oc3ccccc3)cc([N+](=O)[O-])c2)c2ccccc2n1 [Compound 8a, N-Ethyl-4-((3-nitro-5-phenoxyphenyl)amino)quinazoline-2-carboxamide] | 1.5% |
| 0.0 | – | 78.4 | – | NC(=O)c1nc(Nc2cc(Oc3ccccc3)cc([N+](=O)[O-])c2)c2ccccc2n1 [Compound 9a, 4-((3-nitro-5-phenoxyphenyl)amino)quinazoline-2-carboxamide] | 0.3% |
| 0.4 | – | 116.4 | – | COC(=O)c1nc(Nc2cc(Oc3ccccc3)cc([N+](=O)[O-])c2)c2ccccc2n1 [Compound 10a, Methyl 4-((3-nitro-5-phenoxyphenyl)amino)quinazoline-2-carboxylate] | 0.2% |
| 7.4 | – | 65.6 | – | CC(C)OC(=O)c1nc(Nc2cc(Oc3ccccc3)cc([N+](=O)[O-])c2)c2ccccc2n1 [Compound 11a, Isopropyl 4-((3-nitro-5-phenoxyphenyl)amino)quinazoline-2-carboxylate] | 2.1% |
| 8.4 | – | 63.4 | – | CC(C)CCOC(=O)c1nc(Nc2cc(Oc3ccccc3)cc([N+](=O)[O-])c2)c2ccccc2n1 [Compound 12a, Isopentyl 4-((3-nitro-5-phenoxyphenyl)amino)quinazoline-2-carboxylate] | 2.2% |
| 67.8 | – | 106.5 | – | CC(C)OC(=O)c1nc(Nc2cc(Oc3ccccc3Br)cc([N+](=O)[O-])c2)c2ccccc2n1 [Compound 13g, Isopropyl 4-((3-(2-bromophenoxy)-5-nitrophenyl)amino)quinazoline-2-carboxylate] | 19.2% |
